Measured values reported in US10238710B2, “Peptide having anti-inflammatory, osteogenic and hair growth promoting activities, and use of same” (CAREGEN CO., LTD., priority 2014, dated 2019).

Columns and labels:
[1] = test system: KGF; assay: Western blotting of hair growth protein KGF; assay type: cell-based, human; conditions: HFDPC, 0.1-50 μg/ml, 24 hours
Description: (§1) In order to observe the changes in the expression of IGF1, KGF, and Wnt3a, which are proteins involved in the development of hair roots in the human hair follicle dermal papilla cells, the cells were treated with the peptides of the present invention for 24 hours, and then subjected to western blotting using specific antibodies, thereby observing the changes in hair growth-related proteins.
(§2) The cells were stabilized by the incubation overnight, and then treated with the peptides at different concentrations (0.1-50 μg/ml) for 24 hours. The cells were treated with the cell lysis buffer to obtain a lysate, followed by protein quantification, and then western blotting was performed with respect to IGF-1, KGF, and Wnt3a.
(§3) The test was carried out using anti-IGF-1 antibody (Santa Cruz Biotechnology, USA), anti-KGF antibody (Santa Cruz Biotechnology, USA), and anti-Wnt3a antibody (Santa Cruz Biotechnology, USA).

[2] = test system: TNFR; assay: Receptor binding assay (TNFR), ELISA; conditions: peptide coated 50 μg/25 μl, O.D. 450 nm, positive control TNF-α
[3] = test system: Phospho-ERK (pERK); assay: Western blotting of cell signaling material, ERK phosphorylation; assay type: cell-based, human; conditions: HFDPC, 1 and 10 μg/ml, 30 minutes and 60 minutes
Description: (§4) In order to observe the changes in the phosphorylation of ERK and the expression of PI3K, which are main signaling materials involved in cell proliferation in the human hair follicle dermal papilla cells, the cells were treated with the peptides of the present invention for 30 minutes and 60 minutes, and then subjected to western blotting using specific antibodies, thereby observing the pERK and PI3K changes. The test was carried out using anti-pERK antibody (Santa Cruz Biotechnology, USA) and anti-pPI3K antibody (Santa Cruz Biotechnology, USA).
(§5) The cells were treated with the cell lysis buffer to obtain a lysate, followed by protein quantification, and then western blotting was performed with respect to Phospho-ERK (pERK), PI3K, and β-catenin.

[4] = test system: human hair follicle dermal papilla cells (HFDPC); assay: Cell proliferation assay (SRB), HFDPC; assay type: cell-based; conditions: 1, 10 and 50 μg/ml, 72 hours
Description: (§6) In order to observe the cell proliferation effect on human hair follicle dermal papilla cells, human hair follicle germinal matrix cells, and human umbilical vein endothelial cells, which are main hair cells, each type of cells were seeded on a 96-well plate at a density of 3×10^3 cells/well, followed by incubation under conditions of 37° C. and 5% CO2 for 24 hours. After the medium was exchanged with the same culture medium completely excluding serum, the cells were treated with the peptides at different concentrations (1 μg/ml, 10 μg/ml, and 50 μg/ml), followed by incubation under the same conditions for 72 hours. After the incubation supernatant was removed, the cells were immobilized using ethanol, and washed three times with phosphate buffer saline (PBS). The wash solution was removed, and the cells were stained through the treatment with colorimetric SRB solution. After the cells were sufficiently washed with 1% acetic acid, the cells were observed using a microscope to observe the state of living cells. The absorbance was read at UV light of 560 nm, thereby measuring the survival conditions of cells

[5] = test system: Phospho-PI3K; assay: Western blotting using osteoblasts (PI3K phosphorylation); assay type: cell-based; conditions: mouse osteoblast line, 50 μg/ml, 15 minutes
Description: The cells were treated with the peptides at 50 μg/ml for 15 minutes (positive control: HGF 50 ng/ml). The cells were treated with the cell lysis buffer to obtain a lysate, followed by protein quantification, and then western blotting was performed with respect to Phospho-PI3K (P-PI3K) using anti-pPI3K antibody (Santa Cruz Biotechnology, USA).

[6] = test system: human hair follicle germinal matrix cells (HFGMC); assay: Cell proliferation assay (SRB), HFGMC; assay type: cell-based; conditions: 1, 10 and 50 μg/ml, 72 hours
Description: as §6

[7] = test system: PI3K; assay: Western blotting of cell signaling material, PI3K; assay type: cell-based, human; conditions: HFDPC, 1 and 10 μg/ml, 30 minutes and 60 minutes
Description: as §4, §5

[8] = target: T1, HGFR (Homo sapiens, UniProt P08581); assay: Receptor binding assay (HGFR), ELISA; conditions: peptide coated 50 μg/25 μl, O.D. 450 nm
T1 construct: purchased R&D Systems
T1 sequence (P08581 25-1390): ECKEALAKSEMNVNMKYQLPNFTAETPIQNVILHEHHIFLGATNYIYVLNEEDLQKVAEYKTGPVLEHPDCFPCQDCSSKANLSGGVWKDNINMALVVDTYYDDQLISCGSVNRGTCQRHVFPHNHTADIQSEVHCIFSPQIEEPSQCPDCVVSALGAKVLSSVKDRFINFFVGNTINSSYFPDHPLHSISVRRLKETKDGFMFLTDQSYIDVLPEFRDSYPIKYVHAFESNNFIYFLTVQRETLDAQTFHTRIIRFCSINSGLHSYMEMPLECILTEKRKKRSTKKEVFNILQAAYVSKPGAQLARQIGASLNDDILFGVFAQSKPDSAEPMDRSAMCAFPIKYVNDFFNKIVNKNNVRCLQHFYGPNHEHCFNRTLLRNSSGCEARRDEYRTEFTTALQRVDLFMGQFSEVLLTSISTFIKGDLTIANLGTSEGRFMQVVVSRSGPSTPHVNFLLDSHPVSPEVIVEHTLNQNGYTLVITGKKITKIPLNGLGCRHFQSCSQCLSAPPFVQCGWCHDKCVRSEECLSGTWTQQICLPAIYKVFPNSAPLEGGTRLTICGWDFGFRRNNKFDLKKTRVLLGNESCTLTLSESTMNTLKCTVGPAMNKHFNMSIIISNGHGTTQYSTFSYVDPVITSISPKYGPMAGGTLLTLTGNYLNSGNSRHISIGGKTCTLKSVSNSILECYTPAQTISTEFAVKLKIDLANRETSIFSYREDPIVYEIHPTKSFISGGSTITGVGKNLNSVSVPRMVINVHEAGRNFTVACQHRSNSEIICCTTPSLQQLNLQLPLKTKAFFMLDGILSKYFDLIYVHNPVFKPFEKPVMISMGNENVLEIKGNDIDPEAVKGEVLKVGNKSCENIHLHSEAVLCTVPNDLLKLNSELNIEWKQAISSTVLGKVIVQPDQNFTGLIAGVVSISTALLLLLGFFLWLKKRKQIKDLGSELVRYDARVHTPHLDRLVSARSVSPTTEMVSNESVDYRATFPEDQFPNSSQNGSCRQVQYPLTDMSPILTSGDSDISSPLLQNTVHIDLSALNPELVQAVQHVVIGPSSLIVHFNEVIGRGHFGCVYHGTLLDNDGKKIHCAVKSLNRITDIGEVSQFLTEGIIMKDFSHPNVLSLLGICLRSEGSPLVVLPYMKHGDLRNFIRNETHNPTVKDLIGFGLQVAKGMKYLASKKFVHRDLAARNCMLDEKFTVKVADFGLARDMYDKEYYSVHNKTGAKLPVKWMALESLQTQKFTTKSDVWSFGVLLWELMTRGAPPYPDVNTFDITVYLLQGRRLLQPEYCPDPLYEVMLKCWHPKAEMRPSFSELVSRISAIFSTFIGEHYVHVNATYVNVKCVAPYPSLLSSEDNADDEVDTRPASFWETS
Description: (§7) On an ELISA plate, 50 μg/25 μl peptide and 25 μl of a coating buffer (20 mM sodium phosphate pH 9.6) were added and mixed, and then incubated at 4° C. overnight. After washing three times with PBST (300 μl), the blocking with 200 μl of a blocking buffer (3% BSA) was carried out at room temperature for 2 hours. After washing three times with PBST (300 μl), HGFR (R&D Systems) was added at 0.5 μg/1 ml per well, followed by incubation at room temperature for 2 hours. After washing three times with PBST (300 μl), anti-human IgG-HRP was diluted at 1:1,000, which was then added at 100 μl per well, followed by incubation at room temperature for 2 hours. After washing three times with PBST (300 μl), 100 μl of TMB solution was added, followed by color development. 50 μl of a stop solution (3 N H2SO4) was added to stop the reaction, and then the absorbance was read at O.D. 450 nm.

[9] = test system: IL-8; assay: IL-8 ELISA in THP-1 cells treated with TNF-α; assay type: cell-based, human; conditions: 10 μg/ml pre-treatment 30 minutes, 50 ng/ml TNF-α, 24 hours
Description: (§8) The human monocytes, THP-1 cells were seeded on a 24-well plate at a density of 2×10^6 cells/well. After incubation overnight, the cells were pre-treated with the samples at 10 μg/ml for 30 minutes, and treated with 50 ng/ml TNF-α, followed by incubation for 24 hours. The cell incubation medium was obtained, followed by centrifugation at 13,000 rpm for 10 minutes at 4° C., and then the supernatant was separated. ELISA was carried out using IL-1b and IL-8 ELISA kit (R&D system).

[10] = test system: DKK-1; assay: Western blotting of DKK-1 with hair loss causing hormone DHT; assay type: cell-based, human; conditions: HFDPC, 48 hours
Description: The cells were treated with DHT and the peptides for 48 hours, and then subjected to western blotting with respect to DKK-1 using specific antibodies, thereby observing the expression of DKK-1.
The human hair follicle dermal papilla cells were seeded on a 6-well plate at a density of 1×10^5 cells/well. The cells were stabilized by incubation overnight, and then treated with 5 μg/ml DHT (Sigma Aldrich) together with the peptides at different concentrations (1 μg/ml and 10 μg/ml) for 48 hours. The cells were treated with the cell lysis buffer to obtain a lysate, followed by protein quantification, and then western blotting was performed with respect to DKK-1 using anti-DKK-1 antibody (Santa Cruz Biotechnology, USA).

[11] = test system: Wnt3a; assay: Western blotting of hair growth protein Wnt3a; assay type: cell-based, human; conditions: HFDPC, 0.1-50 μg/ml, 24 hours
Description: as §1, §2, §3

[12] = test system: human umbilical vein endothelial cells (HUVEC); assay: Cell proliferation assay (SRB), HUVEC; assay type: cell-based; conditions: 1, 10 and 50 μg/ml, 72 hours
Description: as §6

[13] = test system: IGF-1; assay: Western blotting of hair growth protein IGF-1; assay type: cell-based, human; conditions: HFDPC, 0.1-50 μg/ml, 24 hours
Description: as §1, §2, §3

[14] = test system: IL-1β; assay: IL-1β ELISA in THP-1 cells treated with TNF-α; assay type: cell-based, human; conditions: 10 μg/ml pre-treatment 30 minutes, 50 ng/ml TNF-α, 24 hours
Description: as §8

[15] = test system: Ha3-II and keratin 14; assay: RT-PCR of keratinocyte differentiation markers in HaCaT cells; assay type: cell-based, human; conditions: HaCaT, 0.1, 1 and 10 μg/ml, 24 hours
Description: The cells were treated with the peptides at different concentrations (0.1 μg/ml, 1 μg/ml, and 10 μg/ml), and then incubated in an incubator at 37° C. for 24 hours. […] RT-PCR was carried out using primers of respective markers (Ha3-II and keratin 14) and PCR pre-mix (Intron) to measure the changes in the expression of the markers.
Target-specific primer sequences used in PCR for keratinocyte differentiation markers were as follows: Ha3-II forward primer sequence, 5′-[…]-3′ and Ha3-II reverse primer, 5′-[…]-3′ (annealing temperature, 60° C.); Keratin14 forward primer sequence, 5′-[…]-3′ and Keratin14 reverse primer, 5′-[…]-3′ (annealing temperature, 60° C.)

[16] = test system: β-catenin; assay: Western blotting of cell signaling material, β-catenin; assay type: cell-based, human; conditions: HFDPC, 1 and 10 μg/ml, 30 minutes and 60 minutes
Description: as §4, §5

[17] = target: T2, BMPR-IB (Homo sapiens, UniProt O00238); assay: Receptor binding assay (BMPR), ELISA; conditions: peptide coated 50 μg/25 μl, O.D. 450 nm, positive control BMP4
T2 construct: purchased R&D Systems
T2 sequence (O00238 14-502): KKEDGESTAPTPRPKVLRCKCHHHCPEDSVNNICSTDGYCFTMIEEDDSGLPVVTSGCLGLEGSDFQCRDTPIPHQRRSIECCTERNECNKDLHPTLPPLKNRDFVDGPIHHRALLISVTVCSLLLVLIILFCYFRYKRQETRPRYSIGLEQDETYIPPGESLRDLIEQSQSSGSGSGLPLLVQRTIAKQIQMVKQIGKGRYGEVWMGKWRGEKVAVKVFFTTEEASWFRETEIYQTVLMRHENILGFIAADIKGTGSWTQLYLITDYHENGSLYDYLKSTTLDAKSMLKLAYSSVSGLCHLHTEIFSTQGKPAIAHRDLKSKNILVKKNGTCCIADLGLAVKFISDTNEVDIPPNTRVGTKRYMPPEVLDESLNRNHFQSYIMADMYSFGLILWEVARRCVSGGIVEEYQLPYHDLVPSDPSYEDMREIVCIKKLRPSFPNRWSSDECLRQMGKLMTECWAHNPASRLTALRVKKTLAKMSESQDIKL
Description: as §7, with “In” for “On”, “BMPR-IB” for “HGFR”, “determined” for “read”

[18] = test system: Phospho-smad1/5/8; assay: Western blotting using osteoblasts (Smad1/5/8 phosphorylation); assay type: cell-based; conditions: mouse osteoblast line, 50 μg/ml, 15 minutes and 30 minutes
Description: The cells incubated overnight were incubated in a serum-free medium for 24 hours, and then treated with the peptide at 50 μg/ml for 15 minutes and 30 minutes (positive control; BMP4 50 ng/ml). The cells were treated with the cell lysis buffer to obtain a lysate, followed by protein quantification, and then western blotting was performed with respect to Phospho-smad1/5/8 (P-smad1/5/8) using anti-p-smad1/5/8 antibody (Santa Cruz Biotechnology, USA).

Molecule	expression of KGF [1]	binding affinity to TNFR [2]	phosphorylation of ERK [3]	cell proliferation, HFDPC [4]	phosphorylation of PI3K by HGFR signal stimulation [5]	cell proliferation, HFGMC [6]	level of PI3K [7]	binding affinity on HGFR [8]	expression of IL-8 increased by TNF-α treatment [9]	expression of DKK-1 increased by DHT ([10]; 5 μg/ml DHT together with peptide 1 and 10 μg/ml)	expression of Wnt3a [11]	cell proliferation, HUVEC [12]	expression of IGF-1 [13]	expression of IL-1β increased by TNF-α treatment [14]	mRNA expression levels of differentiation markers Ha3-II and keratin 14 [15]	expression of β-catenin [16]	binding affinity on BMPR [17]	phosphorylation of Smad1/5/8 by BMPR signal stimulation [18]	expression of DKK-1 ([10]; treatment with DHT 5 μg/ml alone)
NH2-Ala-Cys-Asp-Gly-Arg-Thr-Gln-Ala-Leu-Cys-COOH (H-ACDGRTQALC-OH; cysteine pairing not given here) [SEQ ID NO: 3]	increased	high binding affinity	increased	increased in a concentration-dependent manner	increased	increased in a concentration-dependent manner	increased	high binding affinity	inhibited	reduced	increased	increased in a concentration-dependent manner	increased	inhibited	keratinocyte differentiation promoting effect	increased			
NH2-Ala-Cys-Phe-Thr-Arg-Thr-Ser-His-Ala-Cys-COOH (H-ACFTRTSHAC-OH; cysteine pairing not given here) [SEQ ID NO: 2]		high binding affinity							inhibited					inhibited			high binding affinity	increased	
C[C@]12CCC(=O)C[C@@H]1CC[C@@H]1[C@@H]2CC[C@]2(C)[C@@H](O)CC[C@@H]12 [DHT, dihydrotestosterone, reference compound]																			increased
